Tests used:
ICR mice = test: In vivo pharmacodynamic test in the forced swimming model in mice; conditions: for immobility time during the latter four minutes compared with that of the model group: 10 mg/kg p.o.; for Mean (immobility, %) / Mean (immobility, s): 10 mpk p.o.; for Mean (immobility, %): floating time percentage = 100*floating time/240 s; for Mean (immobility, s): latter four minutes of 6 min swim
Method: The antidepressant effect of the compound was evaluated by the forced swimming model in mice.
Male ICR mice (25-35 g) were adapted in the test environment for 3 days before the forced swimming test.
According to the test design, the mice were randomly grouped on the day before the test according to body weight, with 12 mice in each group. Before the test, the compounds of each example were administrated intragastrically according to the Tmax thereof in the brain in mice pharmacokinetic test as follows:
1) Model group (0.5% CMC-Na+1% Tween 80 solution, p.o., 10 mL/kg);
2) Compounds of Example 2, Example 5, Example 7, Example 18, Example 23, Example 26 and Example 50 (10 mg/kg, p.o., 10 mL/kg).
When being administrated, the compounds of each example were suspended in 0.5% CMC-Na-1% Tween 80 solution to the desired concentration.
0.5-1 hour after administration, ICR mice were placed in a forced swimming device (transparent glass drum (water depth 18 cm, water temperature 25-26° C.), one mouse per tank) and forced to swim for 6 minutes. The forced swimming device recorded the floating time of the ICR mice during the entire 6 minutes, and the data of the latter four minutes were used for data analysis. The mice were taken out immediately after the swimming test, wiped dry and put back in their original cages.
Note: The criterion for determining the immobility time is that the mouse stops struggling in water and floats, and there are only slight limb movements to keep the head floating on the water.
3.4 Data Analysis Floating time percentage=100*floating time/240 s.

GABA-A receptor = test: 35S-TBPS binding assay on rat cerebral cortex cell membrane; parameters: species or system Sprague-Dawley rat; conditions: 2 nM 35S-TBPS, GABA added, read-out: 35S-TBPS bindng test, IC50 on inhibiting the TBPS binding activity
In short: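 Male Sprague-Dawley rat cortical membranes in PBS were preincubated 5 min at 25 °C with compound (8-point 3-fold series […], 1% DMSO), then with GABA ([…]). 2 nM 35S-TBPS was added for 20 h at 4 °C, followed by GF/C filtration and scintillation counting. % inhibition was normalised to DMSO and 10 μM reference controls, with IC50 from a 4-parameter fit.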

Compound	immobility time during the latter four minutes compared with that of the model group (ICR mice)	Mean (immobility, %) (ICR mice) [%]	Mean (immobility, s) (ICR mice) [s]	IC50 (GABA-A receptor) [nM]
C[C@@]1(O)CC[C@@]2(F)[C@H](CC[C@H]3[C@@H]4CC[C@H](C(=O)Cn5cc(C#N)cn5)[C@@]4(C)CC[C@@H]32)C1 [Example 2, 1-(2-((3R,5R,8S,9S,10R,13S,14S,17S)-10-Fluoro-3-hydroxy-3,13-dimethylhexadecahydro-1H-cyclopenta[a]phenanthren-17-yl)-2-oxoethyl)-1H-pyrazole-4-carbonitrile]	significantly different	36.39	87.34	11.8
C[C@@]1(O)CC[C@@]2(F)[C@H](CC[C@H]3[C@@H]4CC[C@H](C(=O)Cn5ccc(C(F)(F)F)n5)[C@@]4(C)CC[C@@H]32)C1 [Example 5, 1-((3R,5R,8S,9S,10R,13S,14S,17S)-10-Fluoro-3-hydroxy-3,13-dimethylhexadecahydro-1H-cyclopenta[a]phenanthren-17-yl)-2-(3-(trifluoromethyl)-1H-pyrazol-1-yl)ethan-1-one]	very significantly different	27.11	65.07	8.3
C[C@@]1(O)CC[C@@]2(F)[C@H](CC[C@H]3[C@@H]4CC[C@H](C(=O)CNc5ccc(F)cc5)[C@@]4(C)CC[C@@H]32)C1 [Example 23, 1-((3R,5R,8S,9S,10R,13S,14S,17S)-10-Fluoro-3-hydroxy-3,13-dimethylhexadecahydro-1H-cyclopenta[a]phenanthren-17-yl)-2-((4-fluorophenyl)amino)ethan-1-one]	very significantly different	28.55	68.51	30.9

From patent US11661437B2, “Steroid derivative regulators, method for preparing the same, and uses thereof” (priority 2018, dated 2023)
